Patent US12616738B2, “Solid compositions comprising a GLP-1 agonist and a salt of N-(8-(2-hydroxybenzoyl)amino)caprylic acid” (Novo Nordisk A/S, priority 2018, dated 2026)
Read-outs that look alike come from different tables or passages of the source.

How the values were obtained:
[1] = Assay I: SNAC solubility in combination with selected hydrotropes; settings: for Fold increase in solubility: SNAC solubility relative to SNAC control (no hydrotrope), hydrotrope 200 mg/mL, pH 6; for SNAC concentration: hydrotrope 200 mg/mL in ultrapure water, pH 6, 200 mg SNAC added, 4 hours at room temperature, RP-HPLC
[2] = pH 6
[3] = pH 6; remark: listed apart in the source

Structure (SMILES)	Fold increase in solubility [1]	SNAC concentration [1]	effect on SNAC solubility (FIG. 1) [3]	Fold increase in solubility [2]	SNAC concentration [2]
NC(N)=O [Urea]	1.3 fold	0.77 mg/mL	–	–	–
O=C([O-])c1ccccc1O.[Na+] [Sodium salicylate]	–	–	–	2.7 fold	1.59 mg/mL
O=C(O[C@@H]1Cc2c(O)cc(O)cc2O[C@@H]1c1cc(O)c(O)c(O)c1)c1cc(O)c(O)c(O)c1 [Epigallocatechin gallate]	9.6 fold	5.66 mg/mL	–	–	–

Second part, led by results:

Fold increase in solubility [1]	SNAC concentration [1]	effect on SNAC solubility (FIG. 1) [3]	Structure (SMILES)	Fold increase in solubility [2]	SNAC concentration [2]
38 fold	22.46 mg/mL	–	CN(C)C(=O)c1ccccc1 [N,N dimethyl benzamide]	–	–
7.8 fold	4.58 mg/mL	–	CCN(CC)C(=O)c1cccnc1 [N,N diethyl nicotinamide]	–	–
–	–	dose dependent effect	NC(=O)c1cccnc1 [Nicotinamide]	–	–
